The text below walks through data of USRE39282E1, “Nucleic acid derivatives” (SmithKline Beecham Corporation, priority 1989, dated 2006).

This experiment has as its system HIV-1 isolates. In words: plaque-reduction assay with HT4-6C cell monolayers, HIV isolates from untreated and treated individuals. The class given is cell-based. The method, then: The isolation of HIV-1 was achieved according to methodology reported by Larder et al. PBL samples were prepared by separation on “Ficoll-hypaque” gradients and co-cultivated directly with MT-2 cells (approximately 10^6 of each) after pre-stimulation for 24 to 72 hours with phytohaemag-glutinin (3 μg/ml). In many cases PBLs were cultured after long-term frozen storage. Cultures were maintained in RPMI 1640 supplemented with 10% fetal bovine serum, antibiotics, 2% interleukin-2, and polybrene (2 μg/ml) and expanded by addition of fresh MT-2 cells when a cytopathic effect was observed (between 4 and 14 days). HIV replication was confirmed by the detection of p24 antigen in culture supernatants (p24 antigen detection kit, Abbott, Chicago, Ill.). Virus were prepared from infected cultures and stored in aliquots at −70° C. […] (Larder, B. A., Darby, G., Richman, D., Science, 243, 1731, (1989)).

Read-outs that look alike come from different tables or passages of the source.

For `Cc1cn([C@H]2C[C@H](N=[N+]=[N-])[C@@H](CO)O2)c(=O)[nH]c1=O` [zidovudine, 3′-Azido-3′-deoxythymidine], the IC50 was determined as 2 µM (Human immunodeficiency virus 1, read-out: ZIDOVUDINE SENSITIVITY (ID50 μM), HIV isolate A012D, 26 months of therapy, RT 67 Asn, 70 Arg, 215 Phe, 219 Gln); 2.3 µM (Human immunodeficiency virus 1, read-out: ZIDOVUDINE SENSITIVITY (ID50 μM), HIV isolate A018C, 14 months of therapy, RT 67 Asn, 70 Arg, 215 Tyr, 219 Gln); 0.6 µM (Human immunodeficiency virus 1, read-out: ZIDOVUDINE SENSITIVITY (ID50 μM), HIV isolate A036C, 11 months of therapy, RT 67 Asp, 70 Lys, 215 Tyr, 219 Lys); 5.6 µM (Human immunodeficiency virus 1, read-out: ZIDOVUDINE SENSITIVITY (ID50 μM), HIV isolate A036D, 20 months of therapy, RT 67 Asn, 70 Arg, 215 Tyr, 219 Lys); 1.4 µM (Human immunodeficiency virus 1, read-out: ZIDOVUDINE SENSITIVITY (ID50 μM), HIV isolate P022C, 16 months of therapy, RT 67 Asn, 70 Arg, 215 Phe, 219 Gln); 0.56 µM (Human immunodeficiency virus 1, read-out: ZIDOVUDINE SENSITIVITY (ID50 μM), HIV isolate P035A, 6 months of therapy, RT 67 Asp, 70 Lys, 215 Tyr, 219 Lys). For the same compound, the IC50 (Human immunodeficiency virus 1, read-out: ZIDOVUDINE SENSITIVITY (Mean ID50, μM), HIV isolate A012D, Table 2) was 2.56 µM; the IC50 (Human immunodeficiency virus 1, read-out: Zidovudine Sensitivity (ID50 μM), HIV isolate A001A, 0 months of therapy, RT sequence wild type, Table 3) was 0.03 µM; the IC50 (Human immunodeficiency virus 1, read-out: Zidovudine Sensitivity (ID50 μM), HIV isolate A001B, 12 months of therapy, RT sequence R70 and N67 R70 Q219, Table 3) is 0.11 µM; the IC50 (Human immunodeficiency virus 1, read-out: Zidovudine Sensitivity (ID50 μM), HIV isolate A012D, 26 months of therapy, RT N67 R70 F215 Q219, Table 3) amounted to 2 µM; the IC50 (Human immunodeficiency virus 1, read-out: Zidovudine Sensitivity (ID50 μM), HIV isolate A018C, 14 months of therapy, RT N67 R70 Y215 Q219, Table 3) came to 4 µM; the IC50 (Human immunodeficiency virus 1, read-out: Zidovudine Sensitivity (ID50 μM), HIV isolate A025A, 24 months of therapy, RT R70, Table 3) turned out to be 0.11 µM. Further, the IC50 is, setting by setting: (Human immunodeficiency virus 1, read-out: Zidovudine Sensitivity (ID50 μM), HIV isolate A036C, 11 months of therapy, RT Y215, Table 3) 0.67 µM; (Human immunodeficiency virus 1, read-out: Zidovudine Sensitivity (ID50 μM), HIV isolate A036D, 20 months of therapy, RT N67 R70 Y215, Table 3) 5.6 µM.
